# Numbering of substitutions follows the chain as printed.
# Assays:
# [1] = system: liver tissue; test: Liver cancer induced by injecting diethylnitrosamine (DEN); type: in vivo; settings: transgenic mouse
# Description: The exacerbation process of liver disease was confirmed using the transgenic mouse as follows. Particularly, the transgenic mouse was induced with liver cancer by injecting diethylnitrosamine (DEN). The liver tissue was extracted from the mouse, and H&E staining was performed. As a result, it was confirmed that liver cancer was induced (FIG. 31A). It was also confirmed that the phosphorylation of STAT3 protein and the expression of laminin were increased as the expression of TM4SF5 protein increased (FIG. 31B).
# [2] = target: T1, TM4SF5 mutant, 124th to 129th amino acid residues (Homo sapiens, UniProt O14894, E129A/F128S/G125A/H127A/W124A/Y126S); test: Arginine binding to TM4SF5 mutants of the 124th to 129th amino acid residues; settings: FIG. 15G
# T1 construct: made in house
# T1 sequence (O14894 1-197 W124A/G125A/Y126S/H127A/F128S/E129A): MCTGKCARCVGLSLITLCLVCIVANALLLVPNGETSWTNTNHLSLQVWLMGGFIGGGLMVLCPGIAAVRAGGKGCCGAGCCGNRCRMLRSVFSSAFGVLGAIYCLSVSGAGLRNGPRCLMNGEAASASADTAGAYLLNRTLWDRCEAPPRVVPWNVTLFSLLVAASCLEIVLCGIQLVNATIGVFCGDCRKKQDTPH
# Description: (§1) First, HEK293FT cells (Thermo, USA) were prepared by culturing in 5% CO2 at 37° C. using DMEM containing 10% FBS and antibiotics. The prepared cells were distributed in 150 mm plates and cultured to the density of 60%, which were transfected with the construct expressing TM4SF5, MetaP2, Castrol, TM4SF1, TM4SF4 and TM4SF5 proteins constructed in Example 11 using PEI. Two days after the transfection, the desired protein was precipitated under the same conditions and methods as described in Example 11 using the beads coated with streptavidin. The precipitate was added with 10 μM [3H]-arginine (American radiolabeled chemicals, USA), followed by reaction at 4° C. for 1 hour. At this time, a sample in which 10 mM of L-arginine was added to the same amount of beads was used as the control. Upon completion of the reaction, the beads were washed 3 times with lysis buffer, to which 2 m ? of scintillation cocktail (Ultima gold, Perkin Elmer, USA) was added. The mixture was vortexed and analyzed using a liquid scintillation counter (Tri-Carb, Perkin Elmer, USA).
# (§2) First, a short extracellular loop (SEL) fragment mutant comprising the 31st to 42nd amino acid residues from the N-terminus of the amino acid sequence constituting TM4SF5 protein (SEQ. ID. NO: 1) and a long extracellular loop (LEL) fragment mutant comprising the 113th to 157th amino acid residues from the N-terminus were prepared. […]
# [3] = High arginine diet for 10 weeks: body weight and liver fat (H&E); type: in vivo, mouse; settings: for weight gain compared to the mouse fed a normal diet: high arginine diet 10 weeks, FIG. 17A
# Description: Particularly, the TM4SF5 gene KO mouse prepared in Example <7-1> was fed L-arginine (40 g/kg of mouse body weight) for 10 weeks.
# The liver tissue was extracted from the TM4SF5 gene KO mouse fed a high arginine diet in Example <13-1>, and H&E staining was performed using the method described above.
# [4] = target: T2, TM4SF5 protein (Homo sapiens, UniProt O14894); test: [3H]-arginine binding to precipitated TM4SF5 protein (liquid scintillation)
# T2 construct: in addition to the wild type of TM4SF5 protein (WT, full length); made in house; host or cells: HEK293FT cells, transient transfection with PEI, pull-down on streptavidin-coated beads
# T2 sequence (O14894 1-197): T1 sequence (O14894 1-197 W124A/G125A/Y126S/H127A/F128S/E129A) with A124W, A125G, S126Y, A127H, S128F, A129E
# Description: as §1
# An experiment was performed to confirm whether the binding of TM4SF5 protein and arginine confirmed in Example <12-2> was concentration-dependent. The experiment was performed under the same conditions and methods as described in Example <12-2>, except that HEK293FT cells transformed with TM4SF5 protein were used and 0, 0.01, 0.05. 0.1 or 0.5 mM L-arginine was added.
# [5] = target: T3, short extracellular loop (SEL) mutant of TM4SF5 protein (Homo sapiens, UniProt O14894); test: Arginine binding to short extracellular loop (SEL) mutant of TM4SF5; settings: FIG. 15F
# T3 construct: a short extracellular loop (SEL) fragment mutant comprising the 31st to 42nd amino acid residues from the N-terminus; made in house
# Description: as §1, §2
# [6] = target: T4, Castor1 protein (Homo sapiens, UniProt Q8WTX7); test: [3H]-arginine binding to precipitated Castor1 protein
# T4 construct: made in house; host or cells: HEK293FT cells, transient transfection with PEI, pull-down on streptavidin-coated beads
# T4 sequence (Q8WTX7 1-329): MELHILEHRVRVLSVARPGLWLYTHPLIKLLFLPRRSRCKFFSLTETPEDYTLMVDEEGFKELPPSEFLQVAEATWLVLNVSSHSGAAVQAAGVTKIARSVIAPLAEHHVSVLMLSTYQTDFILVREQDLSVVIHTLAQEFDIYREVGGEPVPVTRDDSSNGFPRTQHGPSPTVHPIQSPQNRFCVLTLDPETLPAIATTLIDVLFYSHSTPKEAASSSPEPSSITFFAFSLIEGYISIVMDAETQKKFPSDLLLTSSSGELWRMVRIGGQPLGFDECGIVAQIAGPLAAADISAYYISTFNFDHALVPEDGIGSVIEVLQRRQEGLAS
# Description: as §1
# [7] = system: liver tissue; test: Liver disease mouse model induced by carbon tetrachloride (CCl4); type: in vivo, BALB/C mice
# Description: First, a mouse model in which liver disease was induced by intraperitoneally injecting carbon tetrachloride (CCl4) once a week for 1, 4 or 16 weeks at the concentration of 1 mg/kg to 4-week-old BALB/C mice (Orient Bio, Korea) was prepared.
# On the other hand, after administering CCl4 to the TM4SF5 gene KO mouse prepared in Example <7-1> as described above, the liver tissue was obtained and Mason's trichrome staining was performed, and the results are shown in FIG. 22C. As a result, it was confirmed that the accumulation of collagen was decreased in the TM4SF5 gene KO mouse compared to the control group (FIG. 22C).
# [8] = system: SOCS3 gene; test: SOCS3 shRNA in primary hepatocytes, Western blotting; type: cell-based, mouse; settings: FIG. 8E
# Source text: The primary hepatocytes isolated from the normal mouse (52 weeks old) were transfected with SOCS3 (NM_174466) shRNA (shSOCS3, sense 5′ […]-3′ SEQ. ID. NO: 111; antisense 5′ […]-3′ SEQ. ID. NO: 112) under the same conditions and methods as described in Example <4-1> to prepare hepatocytes wherein the expression of SOCS3 gene was suppressed, and the expression changes of SREBP1 and SOCS3 proteins and the phosphorylation changes of STAT3 were confirmed by Western blotting.
# [9] = system: fat-related genes; test: Real-time PCR of fat-related genes in normal hepatocytes treated with IL-6; type: cell-based, C57BL/6 normal mouse; settings: FIGS. 4B and 4C
# [10] = system: STAT3 phosphorylation and laminin protein expression; test: Western blotting of separated liver tissue of the liver disease model mouse treated with IL-6; type: cell-based; settings: FIG. 26A
# Description: (§3) Particularly, a lysis buffer [50 mM Tris-HCl (pH 7.4), 1% NP40, 0.25% sodium dioxycholate, 150 mM NaCl, 1 mM EDTA], SDS (sodium dodecyl sulfate), Na3O4V and protease inhibitor cocktail (GenDepot) were added to the obtained liver tissue, which was left at 4° C. for 15 minutes to lyse the tissue. The lysate was centrifuged for 30 minutes under the conditions of 13,000 rpm and 4° C. to obtain a supernatant. The proteins present in the supernatant were quantified using BCA reagent (Thermo Scientifics). 4× sample buffer [4 ml of 100% glycerol, 2.4 ml of Tris-HCl (pH 6.8), 0.8 g of SDS, 4 mg of brominated phenol blue, 0.4 ml of β-mercaptoethanol and 3.1 ml of H2O, final volume: 10 ml] was added thereto, which was boiled at 100° C. for 5 minutes. SDS-PAGE was performed, and the proteins were transferred to a nitrocellulose membrane (Whatman). The membrane was pretreated in a solution containing 5% skim milk for 1 hour, and reacted with the antibodies against laminin (Abcam, UK), ACC1 (Cell Signalling, USA), SREBP1 precursor (Santa cruz, USA), mature SREBP1 (Santa cruz, USA), MTP (Santa cruz, USA), PPARα (Santa cruz, USA), pY^706STAT3 (Millipore, USA), STAT3 (Santa cruz, USA), α-tubulin (Sigma, USA) and TM4SF5 (J Clin Invest. 2008 April; 118(4): 1354-66) as the primary antibodies at 4° C. for 15 hours. Then, the membrane was reacted with the secondary antibody, and developed on an X-ray film using an ECL solution (Pierce, USA).
# In addition, the separated liver tissue was treated with IL-6 and Western blotting was performed as described above to confirm whether the increased STAT3 phosphorylation and laminin protein expression were dependent on IL-6. […] Therefore, it was confirmed that the expressions of laminin and laminin γ2 were increased depending on TM4SF5 protein.
# [11] = target: T5, c-Src protein (Mus musculus, UniProt P05480); test: Western blotting of separated liver tissue of the liver disease model mouse treated with c-Src inhibitor PP2 or control PP3; type: cell-based; settings: FIG. 26C
# T5 construct: from tissue; host or cells: liver tissue / hepatocytes of CCl4-treated BALB/C mice
# Description: as §3, with “Then, the membrane was reacted with the secondary antibody, and developed on an X-ray film using an ECL solution (Pierce, USA).” left out
# [12] = administered for 4 or 16 weeks, FIG. 22A
# [13] = primary hepatic epithelial cells
compound,measurement,setting,value
CCN(CC)N=O [diethylnitrosamine],"liver cancer, H&E staining",[1]; FIG. 31A,induced
same,phosphorylation of STAT3 protein and expression of laminin,[1]; FIG. 31B,increased
"N=C(N)NCCC[C@H](N)C(=O)O [arginine, L-arginine]",binding to TM4SF5 mutant of 124th to 129th residues,[2],not bound
same,weight gain of each mouse in comparison to the starting point of the high arginine diet,"[3]; TM4SF5 gene KO mouse, FIG. 17B",significantly decreased
same,"fat accumulation in the liver tissue, H&E staining","[3]; TM4SF5 gene KO mouse, FIG. 17C",relatively suppressed
same,weight gain compared to the mouse fed a normal diet,[3]; TM4SF5 gene KO mouse,about 7%
same,"fatty liver, H&E staining of liver tissue","[3]; normal mouse, FIG. 17C",fatty liver was induced
same,weight gain compared to the mouse fed a normal diet,[3]; normal mouse,about 25%
same,concentration dependence of binding to TM4SF5 protein,"[4]; 0, 0.01, 0.05, 0.1 or 0.5 mM L-arginine, FIGS. 15D and 15E",concentration-dependently
same,binding to TM4SF5 protein,"[4]; 10 μM [3H]-arginine, 4° C., 1 hour, FIGS. 15B and 15C",directly bound
same,binding of TM4SF5 compared with control protein MetaP2,[4]; FIG. 15B,more strongly
same,binding of TM4SF5 compared with TM4SF1 or TM4SF4,[4]; FIG. 15C,more strongly
same,binding to SEL mutant of TM4SF5 protein,[5],not bound
same,binding of Castor1 compared with control protein MetaP2,[6]; FIG. 15B,more strongly
same,binding to Castor1 protein,[6]; FIGS. 15B and 15C,directly bound
"ClC(Cl)(Cl)Cl [CCl4, carbon tetrachloride]","expression of TM4SF5 protein, phosphorylation of STAT3 protein and level of ECM in the liver tissue",[7]; FIG. 23A,all increased
same,"accumulation of collagen, Mason's trichrome staining","[7]; TM4SF5 gene KO mouse compared to the control group, FIG. 22C",decreased
same,"cells in the liver tissue, H&E and Mason's trichrome staining",[7]; [12],died
same,collagen between the cells,[7]; [12],accumulated
same,"mRNA levels of elastin, laminin α2, α3, α5, γ2, and γ3 chains versus control group not treated","[7]; administered for 4 or 16 weeks, FIG. 23B",higher
"shSOCS3: SOCS3 shRNA, SEQ. ID. NO: 111 (sense) and 112 (antisense) (sense CAACAUCUCUGUCGGAAGAUU; antisense UCUUCCGACAGAGAUGUUGUU; listed as RNA, chemistry not given here)",amount of SREBP1 protein,[8]; [13],decreases
same,phosphorylation of STAT3 protein,[8]; [13],increases
same,expression of SOCS3 gene,[8]; primary hepatocytes,decreased
IL-6: a cytokine associated with fatty liver,"expressions of Srebp1, Srebp2, Fasn, CD36, Fabp1, Vldlr and Ldlr, the fat-related genes",[9],increased
same,expression of collagen 1,[10],increased
same,level of laminin protein,[10],not changed
same,phosphorylation of STAT3 protein,[10],increased
CC(C)(C)n1nc(-c2ccc(Cl)cc2)c2c(N)ncnc21 [PP2],expression of laminin protein,[11],suppressed
same,phosphorylation of STAT3 protein,[11],suppressed

# Reference: patent US20210190799A1, “METHOD FOR DIAGNOSING LIVER DISEASES AND METHOD FOR SCREENING THERAPEUTIC AGENT FOR LIVER DISEASES USING CHANGES IN EXPRESSION OF TM4SF5 PROTEIN” (SEOUL NATIONAL UNIVERSITY R&DB FOUNDATION, priority 2017, published 2021)
